# Source: article PMC7160673, “A Degenerate Peptide Library Approach to Reveal Sequence Determinants of Methyllysine-Driven Protein Interactions” (Frontiers in Cell and Developmental Biology, 2020)
# Where no end group is shown, it is not given here. Peg = not defined here
# Key:
# Format in all cases: binding
# [1] = system: CST 9733 (anti-H3K27me3); assay: Histone peptide microarray, CST 9733; settings: histone peptide array signal normalized to the highest peptide average per subarray, hits; CST 9733 LOT:14 dilution 1:5,000
# [2] = system: Millipore #07-449, anti-H3K27me3; assay: Histone peptide microarray, Millipore 07-449; settings: Millipore 07-449 (anti-H3K27me3) hits, average signal per peptide
# [3] = biological target: T1, CDYL2 chromo (Homo sapiens, UniProt Q8N8U2); assay: Histone peptide microarray, CDYL2 chromo; settings: normalized histone peptide array signal, hits; hybridization with 1 M CDYL2 chromo (so in the source); two subarrays
# T1 construct: 1-75; made in house; host or cells: E. coli BL21
# T1 sequence (Q8N8U2 1-75): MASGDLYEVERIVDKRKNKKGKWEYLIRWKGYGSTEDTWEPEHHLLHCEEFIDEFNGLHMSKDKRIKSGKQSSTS
# Description: (§1) Peptide microarrays were fabricated using an Aushon 2470 microarrayer and used as described ([Cornett et al., 2017]) with the following modifications. Protein and antibody hybridization steps were performed in buffer containing 25 mM HEPES pH 7.5, 100 mM NaCl, 0.5% BSA (w/v), and 0.1% NP-40. Slides were washed 3 × 5 min in PBS supplemented with 0.1% Tween-20 between each hybridization step. Antibodies used were primary anti-GST (Sigma #7781, 1:2,000 dilution) and an AlexaFluor 647-labeled secondary antibody (Life Technologies A-21245, 1:5,000 dilution). […] Full lists of peptides queried by array analysis are in Supplementary Table S2.
# [4] = system: Abcam #ab8895, anti-H3K4me1; assay: Histone peptide microarray, Abcam ab8895; settings: Abcam ab8895 (anti-H3K4me1) hits, average signal per peptide
# [5] = biological target: T2, MPP8 chromo (Homo sapiens, UniProt Q99549); assay: Histone peptide microarray, MPP8 chromo; settings: normalized histone peptide array signal, hits; hybridization with 1 M MPP8 chromo (so in the source); two subarrays
# T2 construct: 50-118; made in house; host or cells: E. coli BL21
# T2 sequence (Q99549 50-118): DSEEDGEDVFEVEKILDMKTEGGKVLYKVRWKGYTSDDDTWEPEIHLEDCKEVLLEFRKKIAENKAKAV
# Description: as §1
# [6] = system: 53BP1 TTD; assay: Histone peptide microarray, 53BP1 TTD; settings: 53BP1 TTD hits, average signal per peptide
# Summary of the method: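 Printed histone peptide microarrays probed in 25 mM HEPES pH 7.5, 100 mM NaCl, 0.5% BSA, 0.1% NP-40, with 3 × 5 min PBS/0.1% Tween-20 washes between steps. GST-tagged protein detected via anti-GST (1:2,000) then AlexaFluor 647 secondary (1:5,000).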
# [7] = system: Active Motif #39161, anti-H3K9me3; assay: Histone peptide microarray, Active Motif 39161; settings: Active Motif 39161 (anti-H3K9me3) hits
# [8] = system: ABClonal #A2355, anti-H3K4me1; assay: Histone peptide microarray, ABclonal A2355; settings: Abclonal A2355 (anti-H3K4me1) hits
# Description: as §1
Substance,Avg Signal [3],Avg Signal [5],Avg Signal [1],Avg Signal [2],Avg Signal [4],Avg Signal [6],Avg Signal [7],Avg Signal [8]
ARTKQTAR(Me2s)K(Me3)STGGKAPRKQL-K(Biot)-NH2 [H3.1R8me2sK9me3],0.3941,1,0.01037,0.05357,0.1225,0.1271,0.5557,
ARTKQTAR(Me2s)K(Me)STGGKAPRKQL-K(Biot)-NH2 [H3.1R8me2sK9me1],,0.1744,0.01277,,0.3635,0.2791,0.003577,
ARTKQTAR(Me)K(Me2)STGGKAPRKQL-K(Biot)-NH2 [H3.1R8me1K9me2],0.2455,0.5401,,0.003186,0.138,0.4249,0.001142,0.001447
ARTKQTARK(Me2)STGGK(Ac)APRKQL-K(Biot)-NH2 [H3.1K9me2K14ac],0.2985,0.7946,0.0003203,0.00428,0.2875,,0.00928,0.01354
ARTKQTARK(Me2)STGGKAPRKQL-K(Biot)-NH2 [H3.1K9me2 H3.1(1-20)],0.2996,0.7317,0.0005298,,,,,
ARTKQTARK(Me3)pSTGGKAPRKQL-K(Biot)-NH2 [H3.1K9me3S10p],,0.04961,,0.03312,0.1409,0.1329,0.1411,
Ac-APRKQLATKAAR(Me2a)K(Me3)SAPSTGG-Peg-Biot [H3.3R26me2aK27me3],0.1727,0.04277,0.914,0.2433,0.0125,0.1003,0.0032,
Ac-TARK(Me2)STGGKAPRKQLATKAARK(Me2)SAP-Peg-K(Biot)-NH2 [H3.1K9me2K27me2],1,0.9552,0.04684,0.009651,0.004725,,0.0006693,0.0002867

# Second part, led by results:
Avg Signal [3],Avg Signal [5],Substance,Avg Signal [1],Avg Signal [2],Avg Signal [4],Avg Signal [6],Avg Signal [7],Avg Signal [8]
,0.4905,ARTKQTARK(Me)STGGKAPRKQL-K(Biot)-NH2 [Peptide H3.1K9me1],,0.001651,0.4772,0.2555,0.000221,
,0.09452,Ac-APRKQLATK(Me3)AARKSAPATGG-Peg-K(Biot)-NH2 [Peptide H3.1K23me3],5.2822e-5,0.005165,,,0.01355,
0.08888,,Ac-APRKQLATKAARK(Me2)SAPSTGG-Peg-Biot [Peptide H3.3K27me2],0.0115,0.003304,0.0005313,0.3374,,
0.1275,,Ac-APRKQLATKAARK(Me3)SAPSTGG-Peg-Biot [Peptide H3.3K27me3],1,0.2205,,0.04567,0.01689,
,0.009322,Ac-SGRGK(Me)GGK(Ac)GLGK(Me)GGAKRHRKVLR-Peg-Biot [H4K5me1K8acK12me1],,0.001936,0.02853,,0.03017,0.01549
0.4707,,Ac-SGRGK(Me)GGK(Me)GLGK(Me)GGAKRHRKVLR-Peg-Biot [H4K5me1K8me1K12me1],,,0.06188,,0.004623,0.1176
0.04591,,Ac-SGRGKGGKGLGKGGAK(Ac)RHRK(Ac)VLR-Peg-Biot [Peptide H4K16acK20ac],,0.001622,0.002797,,0.03564,0.000726
0.05586,0.04671,PEPAKSAPAPKKGSK(Ac)KAVTKAQKK-Peg-Biot (chain 2 KAVTKAQKK-{Peg-Biot}; not fully specified; reading uncertain) [Peptide H2BK15ac],,0.004399,0.0005218,,0.01254,0.00117
